According to patent US8324390B2, “Tetrazole-substituted anthranilamides as pesticides” (Bayer CropScience AG, priority 2008, dated 2012):
Where two headings read alike, the source gives them in different places.

Assays:
[1] = test system: larvae of the mustard beetle (Phaedon cochleariae); assay: Phaedon test (PHAECO spray treatment); settings: Phaedon cochleariae, in Brassica rapa, foliar, read-out: effect in % (beetle larvae killed)
[2] = log P determination by HPLC (EEC Directive 79/831 Annex V.A8); format: physicochemical
Experimental: The measurements were carried out using an Agilent 1100 LC system with a 50*4.6 Zorbax Eclipse C18 1.8 μm column (oven temperature 55° C., flow rate 2.0 ml/min).
The following mobile phases were used:
Mobile phase A: acetonitrile+1000 μl of formic acid/l
Mobile phase B: Millipore water+900 μl of formic acid/l

[3] = test system: caterpillars of the armyworm (Spodoptera frugiperda); assay: Spodoptera frugiperda test (SPODFR spray treatment); format: in vivo; settings: Spodoptera frugiperda, foliar, read-out: effect in % (caterpillars killed)
Text: (§1) Solvent: 78.0 parts by weight of acetone

[4] = test system: green peach aphid (Myzus persicae); assay: Myzus test (MYZUPE spray treatment); format: in vivo; settings: Myzus persicae, foliar, read-out: effect in % (aphids killed)
Text: Solvent: 78 parts by weight of acetone
as §1

[5] = reversed-phase HPLC, Zorbax Eclipse C18 column, determined by HPLC according to EEC Directive 79/831 Annex V.A8, read-out: log P
[6] = application rate 100 g/ha, maize leaf discs
[7] = application rate 100 g/ha, Chinese cabbage leaf discs

chromatographic logP [2, 5] | chromatographic logP ([2]; reversed-phase HPLC, Zorbax Eclipse C18 column, by HPLC according to EEC Directive 79/831 Annex V.A8, read-out: log P) | SMILES | pest or weed control at 100 g/ha [1] | pest or weed control at 100 g/ha [3, 6] | pest or weed control at 100 g/ha [4, 7] | chromatographic logP ([2]; log P) | pest or weed control at 100 g/ha ([3]; in Zea mays) | pest or weed control at 100 g/ha ([4]; in Brassica rapa) | pest or weed control at 20 g/ha ([4]; in Brassica rapa)
2.94 | – | CCNC(=O)c1cc(C#N)cc(C)c1NC(=O)c1cc(Cn2nnnc2C(F)(F)C(F)(F)F)nn1-c1ncccc1Br [Example 519] | ≥ 80% | ≥ 80% | ≥ 80% | – | – | – | –
– | – | C#CCNC(=O)c1cc(C#N)cc(C)c1NC(=O)c1cc(Cn2nnc(C(F)(F)F)n2)nn1-c1ncccc1Cl [Example 96] | ≥ 80% | – | – | 2.9 | ≥ 80% | ≥ 80% | –
3.84 | – | Cc1cc(C#N)cc(C(=O)NCC(C)C)c1NC(=O)c1cc(Cn2nnc(C(F)(F)F)n2)nn1-c1ccccc1Cl [Example 533] | ≥ 80% | ≥ 80% | ≥ 80% | – | – | – | –
– | – | Cc1cc(C#N)cc(C(=O)NC(C)C2CC2)c1NC(=O)c1cc(Cn2nnc(C(F)F)n2)nn1-c1ncccc1Cl (stereo not drawn) [Example 263] | ≥ 80% | – | – | 2.86 | ≥ 80% | ≥ 80% | –
3.88 | – | Cc1cc(C#N)cc(C(=O)NC(C)(C)C)c1NC(=O)c1cc(Cn2nnc(C(F)(F)F)n2)nn1-c1c(F)cccc1Cl [Example 528] | ≥ 80% | ≥ 80% | ≥ 80% | – | – | – | –
4.25 | – | Cc1cc(C#N)cc(C(=O)NC(C)(C)C)c1NC(=O)c1cc(Cn2nnc(C(F)(F)C(F)(F)F)n2)nn1-c1ccccc1Cl [Example 434] | ≥ 80% | ≥ 80% | ≥ 80% | – | – | – | –
– | – | CNC(=O)c1cc(I)cc(C)c1NC(=O)c1cc(Cn2nnnc2C(F)(F)F)nn1-c1ncccc1Cl [Example 172] | ≥ 80% | – | – | 2.86 | ≥ 80% | ≥ 80% | –
3.25 | – | Cc1cc(C#N)cc(C(=O)NC(C)C)c1NC(=O)c1cc(Cn2nnnc2C(F)(F)F)nn1-c1ccccc1Cl [Example 491] | ≥ 80% | ≥ 80% | ≥ 80% | – | – | – | –
– | – | Cc1cc(Br)cc(C(=O)NC(C)(C)C)c1NC(=O)c1cc(Cn2nnc(C(F)F)n2)nn1-c1ncccc1Cl [Example 309] | ≥ 80% | – | – | 3.36 | ≥ 80% | ≥ 80% | –
2.43 | – | Cc1cc(Cl)cc(C(N)=O)c1NC(=O)c1cc(Cn2nnnc2C(F)(F)F)nn1-c1ncccc1Br [Example 481] | ≥ 80% | ≥ 80% | ≥ 80% | – | – | – | –
– | – | Cc1cc(C#N)cc(C(N)=O)c1NC(=O)c1cc(Cn2nnc(C(F)(F)F)n2)nn1-c1ncccc1Cl [Example 17] | ≥ 80% | – | – | 2.45 | ≥ 80% | ≥ 80% | –
– | – | CNC(=O)c1cc(Cl)cc(Cl)c1NC(=O)c1cc(Cn2nnnc2C(F)(F)C(F)(F)F)nn1-c1ncccc1Cl [Example 447] | ≥ 80% | – | – | 3.03 | ≥ 80% | ≥ 80% | –
– | – | Cc1cc(I)cc(C(N)=O)c1NC(=O)c1cc(Cn2nnc(C(F)F)n2)nn1-c1ncccc1Cl [Example 272] | ≥ 80% | – | – | 2.53 | ≥ 80% | ≥ 80% | –
– | – | Cc1cc(C#N)cc(C(=O)NC(C2CC2)C2CC2)c1NC(=O)c1cc(Cn2nnnc2C(F)(F)F)nn1-c1ncccc1Cl [Example 196] | ≥ 80% | – | – | 3.28 | ≥ 80% | ≥ 80% | –
– | – | CC(C)(C)NC(=O)c1cc(Cl)cc(Cl)c1NC(=O)c1cc(Cn2nnc(C(F)(F)F)n2)nn1-c1ncccc1Cl [Example 60] | ≥ 80% | – | – | 3.78 | ≥ 80% | ≥ 80% | –
– | – | Cc1cc(C#N)cc(C(=O)NC(C)C2CC2)c1NC(=O)c1cc(Cn2nnnc2C(F)F)nn1-c1ncccc1Cl (stereo not drawn) [Example 467] | ≥ 80% | – | – | 2.58 | ≥ 80% | ≥ 80% | –
– | – | CNC(=O)c1cc(C#N)cc(C)c1NC(=O)c1cc(Cn2nnc(C3CC3)n2)nn1-c1ncccc1Cl [Example 102] | ≥ 80% | – | – | 2.15 | ≥ 80% | ≥ 80% | –
3.29 | – | Cc1cc(C#N)cc(C(=O)NC2CC2)c1NC(=O)c1cc(Cn2nnc(C(F)(F)F)n2)nn1-c1ccccc1Cl [Example 442] | ≥ 80% | ≥ 80% | ≥ 80% | – | – | – | –
– | 3.12 | CNC(=O)c1cc(Br)cc(C)c1NC(=O)c1cc(Cn2nnc(C(F)(F)F)n2)nn1-c1ncccc1Br [Example 354] | ≥ 80% | ≥ 80% | ≥ 80% | – | – | – | –
– | – | Cc1cc(Cl)cc(C(=O)NC(C)C2CC2)c1NC(=O)c1cc(Cn2nnnc2C(F)F)nn1-c1ncccc1Cl (stereo not drawn) [Example 460] | ≥ 80% | – | – | 3.07 | ≥ 80% | – | ≥ 80%
2.92 | – | Cc1cc(C#N)cc(C(=O)NC(C)(C)C)c1NC(=O)c1cc(Cn2nnnc2C(F)(F)F)nn1-c1ncccc1F [Example 509] | ≥ 80% | ≥ 80% | ≥ 80% | – | – | – | –
– | – | CC(C)(C)NC(=O)c1cc(Cl)cc(Cl)c1NC(=O)c1cc(Cn2nnnc2C(F)(F)F)nn1-c1ncccc1Cl [Example 177] | ≥ 80% | – | – | 3.43 | ≥ 80% | ≥ 80% | –
2.83 | – | Cc1cc(I)cc(C(N)=O)c1NC(=O)c1cc(Cn2nnnc2C(F)(F)F)nn1-c1ncccc1C(F)(F)F [Example 455] | ≥ 80% | ≥ 80% | ≥ 80% | – | – | – | –
3.02 | – | CCNC(=O)c1cc(Br)cc(C)c1NC(=O)c1cc(Cn2nnnc2C(F)(F)F)nn1-c1ncccc1Br [Example 505] | ≥ 80% | ≥ 80% | ≥ 80% | – | – | – | –
– | – | Cc1cc(C)c(NC(=O)c2cc(Cn3nnnc3C(F)(F)F)nn2-c2ncccc2Cl)c(C(=O)NC2CC2)c1 [Example 180] | ≥ 80% | – | – | 2.71 | ≥ 80% | ≥ 80% | –
2.88 | – | Cc1cc(C#N)cc(C(=O)NC(C)C)c1NC(=O)c1cc(Cn2nnc(C(F)(F)F)n2)nn1-c1ncccc1F [Example 406] | ≥ 80% | ≥ 80% | ≥ 80% | – | – | – | –
– | – | CC(NC(=O)c1cc(Cl)cc(Cl)c1NC(=O)c1cc(Cn2nnnc2C(F)F)nn1-c1ncccc1Cl)C1CC1 (stereo not drawn) [Example 465] | ≥ 80% | – | – | 3.02 | ≥ 80% | ≥ 80% | –
